Each structure is given as a SMILES string. Active and inactive are the calls of the source. The calls are words filed in the database; no cut-off is given here.

Experiment [1] relates to HCT-116. Description: Downregulation of SSRP-1 expression in human HCT-116 cells at 0.17 to 1.5 uM measured after 24 hrs by Western blot analysis. The experiment is classed as functional, cell-based. The note with it: dose 0.17-1.5 µM.
For experiment [2], the target named is Histone deacetylase (Homo sapiens) (UniProt Q13547+O15379+Q9UBN7+Q92769+Q9UQL6+Q8WUI4+Q9BY41+Q96DB2+P56524+Q9UKV0+Q969S8). Description: Inhibition of HDAC in human HCT-116 cells assessed as increase in acetylated alpha-tubulin expression expression at 0.17 to 1.5 uM incubated for 48 hrs by Western blot analysis. The note with it: dose 0.17-1.5 µM. In kind it is cell-based. (In general: In western blotting, separated proteins are transferred to a membrane and probed.)

The test system of experiment [3] is MC-38. Put plainly: Antitumor activity against mouse MC38 cells xenografted in C57BL/6 mouse assessed as decrease in tumor volume at 50 to 100 mg/kg, ip administered every 2 days for 16 consecutive days. The experiment is classed as functional, organism-based. The note with it: dose 50-100 mg/kg, time 16.0 day.
Experiment [4] has as its system MC38. Put plainly: Inhibition of HDAC in mouse MC-38 cells assessed as increase in acetylated alpha-tubulin expression expression at 0.17 to 1.5 uM incubated for 48 hrs by Western blot analysis. The experiment is classed as cell-based. The note with it: dose 0.17-1.5 µM.
The subject of the next experiment is HEL. Description: Antiproliferative activity against human HEL cells after 48 hrs by CCK-8 assay. The experiment is classed as functional, cell-based. (In general: Formazan colour is commonly taken as a measure of viable cells.)
Experiment [5] relates to MC-38. Put plainly: Antitumor activity against mouse MC38 cells xenografted in C57BL/6 mouse assessed as decrease in Ac-HH3 expression in tumor at 50 to 100 mg/kg, ip administered every 2 days for 16 consecutive days measured by immunohistochemistry analysis. In kind it is functional, organism-based. The note with it: dose 50-100 mg/kg, time 16.0 day.
In experiment [6] the test system is MC38. Description: Inhibition of HDAC in mouse MC-38 cells assessed as increase in acetylated HH3 expression expression at 0.17 to 1.5 uM incubated for 48 hrs by Western blot analysis. The experiment is classed as cell-based. The note with it: dose 0.17-1.5 µM.
In experiment [7] the test system is HCT-116. Put plainly: Induction of apoptosis in human HCT-116 cells assessed as early apoptotic cells at 1.5 uM incubated for 48 hrs by PI and annexin V-FITC staining based flow cytometry (reference value: 3.4%). In kind it is functional.
Experiment [8] relates to HCT-116. Description: Induction of apoptosis in human HCT-116 cells assessed as late apoptotic cells at 1.5 uM incubated for 48 hrs by PI and annexin V-FITC staining based flow cytometry (reference value: 3.4%). In kind it is functional. A general note: Flow cytometry measures light scatter and fluorescence of single cells or particles in a stream.
A further experiment concerns Calf thymus DNA. Description: Binding affinity to calf thymus DNA at 50 uM incubated for 30 mins and measured by fluorescence spectroscopy. In kind it is nucleic-acid assay. The note with it: Bos taurus.
The test system of experiment [9] is HCT-116. Description: Downregulation of SPT16 expression in human HCT-116 cells at 0.17 to 1.5 uM measured after 24 hrs by Western blot analysis. The experiment is classed as functional, cell-based. The note with it: dose 0.17-1.5 µM.
The target in the next experiment is Histone deacetylase 1 (Homo sapiens, UniProt Q13547). Description: Inhibition of HDAC1 in human HeLa cell nuclear extract using Boc-Lys(Ac)-AMC or Boc-Lys(triflouroacetyl)-AMC as substrate incubated for 30 mins and measured by fluorescence assay. In kind it is cell-free.
For experiment [10], the system named is MC-38. Put plainly: Antitumor activity against mouse MC38 cells xenografted in C57BL/6 mouse assessed as tumor growth inhibition at 100 mg/kg, ip administered every 2 days for 16 consecutive days. The note with it: MC-38, 384 h, time 16 day, read-out: TGI. The experiment is classed as functional.

Sequence of Histone deacetylase 1 (Q13547 whole entry): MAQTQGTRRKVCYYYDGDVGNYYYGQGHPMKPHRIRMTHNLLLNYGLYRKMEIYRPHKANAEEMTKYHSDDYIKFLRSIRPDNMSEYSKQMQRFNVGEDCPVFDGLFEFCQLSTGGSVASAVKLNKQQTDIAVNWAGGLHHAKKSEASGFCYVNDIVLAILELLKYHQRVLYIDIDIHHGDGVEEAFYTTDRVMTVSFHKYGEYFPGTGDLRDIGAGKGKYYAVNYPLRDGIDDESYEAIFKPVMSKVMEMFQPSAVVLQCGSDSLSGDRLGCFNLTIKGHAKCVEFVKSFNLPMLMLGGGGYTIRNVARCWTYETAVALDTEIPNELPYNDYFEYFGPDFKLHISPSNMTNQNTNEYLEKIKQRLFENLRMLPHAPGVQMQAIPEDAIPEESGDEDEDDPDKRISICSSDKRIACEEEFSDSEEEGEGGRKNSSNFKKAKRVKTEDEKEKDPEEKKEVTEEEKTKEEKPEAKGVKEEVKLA

By IC50 is commonly meant the concentration needed to halve the response being measured. Read a high IC50 as lower potency. Turning to `O=C(CCCCCOc1cccc(-c2nnc(-c3ccccc3)s2)c1)NO`, the result in the experiment on HCT-116 [1], with MC-38 [3], in the experiment on MC-38 [5], in the experiment on Calf thymus DNA and in the experiment on HCT-116 [9] was Active. The inhibition result (in [2]; in the experiment on MC38 [4]; in the experiment on MC38 [6]) was “Active” each time. For the same compound, the IC50 was found to be 280 nM with HEL and 15 nM on Histone deacetylase 1. Besides, the Activity in the experiment on HCT-116 [7] and with HCT-116 [8] was 38.5% each time. In addition, the inhibition in vivo at 100 mg/kg in the experiment on MC-38 [10] was 85.2%.
